The values that follow come from PMC4109680, “Identification and Preclinical Pharmacology of the γ-Secretase Modulator BMS-869780” (International Journal of Alzheimer's Disease, 2014).

Each structure is given as a SMILES string.

One experiment concerns rat brain Aβ. The experiment in a line: Rat brain Aβ peptides after oral dose (4-plex immunoassay and Aβ1-x). Format: in vivo. Particulars: 10 mg/kg, 5 hours. Here is the method:
(§1) IC50 determinations for Aβ1-42 and Aβ1-40 in H4-APPsw cultures in 384-well format were determined using homogeneous time-resolved fluorescence immunoassays as previously described. The principle of these assays is illustrated in Figures 1(c) and 1(d). In other experiments using H4-APPsw cultures, Aβ was quantified by ELISA; for Aβ1-42 the combination of monoclonal antibodies was 26D6 and 565-HRP; for Aβ1-40 it was TSD and 26D6-HRP, and for Aβ1-x it was 4G8 and 26D6-HRP. In some experiments a novel 4-plex Aβ electrochemiluminescence immunoassay was used (Mesoscale Discovery catalog number N45ZA-1). Briefly, the 4-plex was carried out in 96-well format, with 4 separate spots of capture antibodies in each well. The 96-well plates were prepared by the manufacturer, with spots of monoclonal antibodies for Aβ1-42, Aβ1-40, and Aβ1-38, and an additional fourth spot of streptavidin in each well. Plates were initially incubated with blocking buffer (5% BSA in phosphate buffered saline, 200 μL per well) for 2 hours at ambient temperature and then with D2A6H-biotin conjugate (50 ng/mL in 1% BSA, phosphate buffered saline, 25 μL per well) for 1 hour. Plates were then rinsed with phosphate buffered saline before addition of experimental samples for determination of Aβ1-42, Aβ1-40, Aβ1-38, and Aβ1-37 levels, following the manufacturer's instructions as for the Aβ 3-plex kit (catalog number K15148E-1). Rat brain extracts for use in the 4-plex assay were made in 0.2% diethylamine, as previously described. For detection of rat Aβ peptides in the 4-plex (Figure 5), 252Q6-sulfo-tag conjugate was used, and for detection of human Aβ peptides from cell cultures 6E10-sulfo-tag conjugate was used. For Aβ in transiently transfected PS1/PS2 dKO fibroblasts, Aβ1-42 was quantified using an ELISA kit (WACO), and Aβ1-40 was quantified by ELISA as described above for H4-APPsw cultures. For triple transgenic mice (3xTg; [63]), human transgenic Aβ1-42 was assayed in brain homogenates using an ELISA kit (WACO). For the rat and mouse experiments illustrated in Figures 7 and 8, brain samples were prepared by solid phase extraction, and endogenous rat brain Aβ1-42 and Aβ1-40 were quantified by ELISA as previously described for wild type mice. For brain extracts made using solid phase extraction, calibration of Aβ was relative, based on the approximately linear response of the assay in the range tested. For brain extracts made in 0.2% diethylamine, Aβ1-42, Aβ1-40, Aβ1-38, and Aβ1-37 concentrations in brain and cell culture samples were determined by fitting the results of immunoassays against calibration curves derived from a range of dilutions of the corresponding synthetic peptides on each assay plate using a quadratic curve fit (Graphpad Prizm 5.0). Aβ1-x was calibrated in the same way against synthetic Aβ1-40 peptide. Results were expressed in units of pM, corrected for sample dilution.
Rats were given oral doses of BMS-869780, and levels of brain Aβ, βCTF, and αCTF were determined 24 hours later. For comparison, BMS-698861 was dosed in a separate experiment and samples were taken 5 hours later. […] (c) Rat brain βCTF was detected by western blotting of immunoprecipitates from samples of the same rat brains used for Aβ determinations. […] (e) and (f) quantification of western blots shown in (c) and (d), respectively, expressed relative to percent of average level of CTF in vehicle-treated rats. […]

The subject of experiment [1] is rat brain APP-CTFβ and APP-CTFα. The experiment in a line: Immunoprecipitation and western blot of APP-CTFβ and APP-CTFα from rat brain. Format: in vivo. The settings on record: 10 mg/kg, 5 hours. Here is the method: Rats were given oral doses of BMS-869780, and levels of brain Aβ, βCTF, and αCTF were determined 24 hours later. For comparison, BMS-698861 was dosed in a separate experiment and samples were taken 5 hours later. (a) Brain levels of Aβ1-42 (red), Aβ1-40 (green), Aβ1-38 (blue), and Aβ1-37 (purple) are shown as bars stacked upon one another. The total height of each bar therefore represents the sum of the four peptides. (b) Aβ1-42 (red—left Y axis) and Aβ1-x (grey—right Y axis). The same results for Aβ1-42 are plotted in both (a) and (b). (c) Rat brain βCTF was detected by western blotting of immunoprecipitates from samples of the same rat brains used for Aβ determinations. V, vehicle groups; results from rats dosed with 1.9, 22, 100, and 235 mg/kg of BMS-869780 and 10 mg/kg BMS-698861 (GSI) are indicated. (d) Western blots of immunoprecipitated αCTF from the same rat brain samples. (e) and (f) quantification of western blots shown in (c) and (d), respectively, expressed relative to percent of average level of CTF in vehicle-treated rats. Actual doses of BMS-869780 were determined by analysis of concentrations in left-over dosing solutions. […]

In experiment [2] the test system is brain Aβ1-42, brain Aβ1-40, plasma Aβ1-40. The experiment can be described thus: Rat intraperitoneal dose response, brain and plasma Aβ 5 hours after dosing. In kind it is in vivo. The settings on record: 30 mg/kg, 5 hours. Here is the method: as §1
Figure 7 BMS-869780 dose response and evaluation of residual Aβ levels in rat brain. (a) Groups of rats received intraperitoneal (IP) injections of vehicle or BMS-869780 at doses of 100, 30, 10, 3, 1, and 0.3 mg/kg. Additional rats were dosed with GSI BMS-698861 at 30 mg/kg as a positive control for Aβ-lowering. Group sizes were seven rats for each dose of BMS-869780 and 14 rats for vehicle and GSI dose groups. Brain and plasma were harvested 5 hours after dosing. Brain Aβ1-42 (green), brain Aβ1-40 (blue), brain Aβ1-x (black), and plasma Aβ1-40 (red) were determined. Values are expressed as % relative to vehicle group mean. Whiskers represent standard error. ⊗Aβ1-x was not determined in the groups dosed at 3, 1, and 0.3 mg/kg. (b) Brain Aβ1-40 was plotted against brain Aβ1-42 for each rat dosed with BMS-869780 (black ▼) and for each rat dosed with vehicle (grey ●). Values are expressed as % relative to vehicle group mean. Whiskers represent standard error. […]

The test system of the next experiment is Notch/Aβ1-40. Details: method as in PMID 24900185. Particulars: cited from earlier work.
Experiment [3] has as its system Aβ1-42 in cerebrospinal fluid. Details: method as in PMID 18090435. The settings on record: clinical trials, even at high doses; cited from earlier work.
Another experiment concerns brain Aβ1-42. Details: method as in PMID 12897211, PMID 17650315. Particulars: rodents; cited from earlier work.

Take `NC(=O)[C@@H](CC1CC1)N(Cc1ccc(-c2ncon2)cc1F)S(=O)(=O)c1ccc(Cl)cc1` [BMS-698861, reference compound]: the “rat brain Aβ1-40, Aβ1-42, Aβ1-38, Aβ1-37 and Aβ1-x” value with rat brain Aβ is on record as “decreased levels of all the peptides”. In addition, the “rat brain APP-CTFβ and APP-CTFα levels” value in experiment [1] was “increased several-fold”. Also, the “Aβ lowering in all Aβ assays including Aβ1-x” value in experiment [2] is listed as “robust lowering in all Aβ assays”.
On to `NC(=O)[C@@H](CCC(F)(F)F)N(Cc1ccc(-c2ncon2)cc1F)S(=O)(=O)c1ccc(Cl)cc1` [avagacestat], for which, in the experiment with Notch/Aβ1-40, the “Notch/Aβ1-40 IC50 ratio” value was 193.
As for `CC(C(=O)O)c1ccc(-c2ccccc2)c(F)c1` (stereo not drawn) [flurbiprofen], in experiment [3], the “effect on Aβ1-42 in cerebrospinal fluid” value is “no effect on Aβ1-42 in cerebrospinal fluid”. In the experiment with brain Aβ1-42, the “effect on brain Aβ1-42” value is listed as “lower brain Aβ1-42 in rodents”.
